# Experiments:
# Assay in all cases: relative viability (nuclei count vs DMSO), 5 days (fraction); higher = more cells survive
# EPLC-272H = system: EPLC-272H
# Summary of the method: (§1)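 For relative viability, nuclei counts in treated wells were divided by those in vehicle wells. Lung cancer cell lines had been pin-tool dosed in 1536-well plates the day after seeding and cultured for 5 days, then fixed and stained in one step (final 0.05% Triton X-100, 1% formaldehyde, 1 ug/ml Hoechst) and imaged at 4×. Doses were one drug alone or a fixed anchor-drug dose plus five library-drug doses (not always all listed) in √10 steps, and values are duplicate-plate medians.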
# NCI-H1563 = system: NCI-H1563
# Summary of the method: as §1
# EMC-BAC-2 = system: EMC-BAC-2
# Summary of the method: as §1
# NCI-H322M = system: NCI-H322M
# Summary of the method: as §1
# NCI-H2405 = system: NCI-H2405
# Summary of the method: as §1
# H3255 = system: H3255
# Summary of the method: as §1
# NCI-H23 = system: NCI-H23
# Summary of the method: as §1
# NCI-H2087 = system: NCI-H2087
# Summary of the method: as §1
# NCI-H1395 = system: NCI-H1395
# Summary of the method: as §1
# NCI-H520 = system: NCI-H520
# Summary of the method: as §1
# NCI-H1355 = system: NCI-H1355
# Summary of the method: as §1
# NCI-H1944 = system: NCI-H1944
# Summary of the method: as §1
# NCI-H1651 = system: NCI-H1651
# Summary of the method: as §1
# LCLC-97TM1 = system: LCLC-97TM1
# Summary of the method: as §1
# NCI-H1993 = system: NCI-H1993
# Summary of the method: as §1
# NCI-H650 = system: NCI-H650
# Summary of the method: as §1
# UMC-11 = system: UMC-11
# Summary of the method: as §1
# NCI-H2085 = system: NCI-H2085
# Summary of the method: as §1
# HCC-827 = system: HCC-827
# Summary of the method: as §1
# HCC-44 = system: HCC-44
# Summary of the method: as §1
# LCLC-103H = system: LCLC-103H
# Summary of the method: as §1
# SK-MES-1 = system: SK-MES-1
# Summary of the method: as §1
# ChaGo-K-1 = system: ChaGo-K-1
# Summary of the method: as §1
# NCI-H1793 = system: NCI-H1793
# Summary of the method: as §1
smiles,measurement,setting,value
CC(C)Oc1cc(Nc2nc(N[C@@H](C)c3ccc(F)cn3)ncc2Cl)n[nH]1 [AZ23] + N=C(N)NC(=N)NCCc1ccccc1 [Phenformin] (partner 250 µM),relative viability,EPLC-272H; first compound 0.01 µM,0.33
same,relative viability,EPLC-272H; first compound 0.03162 µM,0.302
same,relative viability,EPLC-272H; first compound 0.3162 µM,0.378
same,relative viability,NCI-H1563; first compound 0.01 µM,0.708
same,relative viability,NCI-H1563; first compound 0.03162 µM,0.653
same,relative viability,NCI-H1563; first compound 0.3162 µM,0.707
same,relative viability,EMC-BAC-2; first compound 0.01 µM,0.545
same,relative viability,EMC-BAC-2; first compound 0.03162 µM,0.603
same,relative viability,EMC-BAC-2; first compound 0.3162 µM,0.526
same,relative viability,NCI-H322M; first compound 0.03162 µM,0.903
same,relative viability,NCI-H322M; first compound 0.3162 µM,0.785
same,relative viability,NCI-H2405; first compound 0.01 µM,0.33
same,relative viability,NCI-H2405; first compound 0.03162 µM,0.429
same,relative viability,NCI-H2405; first compound 0.3162 µM,0.382
same,relative viability,H3255; first compound 0.01 µM,0.323
same,relative viability,H3255; first compound 0.03162 µM,0.364
same,relative viability,H3255; first compound 0.3162 µM,0.327
same,relative viability,NCI-H23; first compound 0.03162 µM,0.89
same,relative viability,NCI-H23; first compound 0.3162 µM,0.783
same,relative viability,NCI-H2087; first compound 0.01 µM,0.645
same,relative viability,NCI-H2087; first compound 0.03162 µM,0.449
same,relative viability,NCI-H2087; first compound 0.3162 µM,0.458
same,relative viability,NCI-H1395; first compound 0.03162 µM,0.483
same,relative viability,NCI-H1395; first compound 0.3162 µM,0.451
same,relative viability,NCI-H520; first compound 0.01 µM,0.508
same,relative viability,NCI-H520; first compound 0.03162 µM,0.643
same,relative viability,NCI-H520; first compound 0.3162 µM,0.23
same,relative viability,NCI-H1355; first compound 0.01 µM,0.462
same,relative viability,NCI-H1355; first compound 0.03162 µM,0.483
same,relative viability,NCI-H1355; first compound 0.3162 µM,0.455
same,relative viability,NCI-H1944; first compound 0.01 µM,0.197
same,relative viability,NCI-H1944; first compound 0.03162 µM,0.225
same,relative viability,NCI-H1944; first compound 0.3162 µM,0.219
same,relative viability,NCI-H1651; first compound 0.03162 µM,0.332
same,relative viability,NCI-H1651; first compound 0.3162 µM,0.356
same,relative viability,LCLC-97TM1; first compound 0.01 µM,0.502
same,relative viability,LCLC-97TM1; first compound 0.03162 µM,0.485
same,relative viability,LCLC-97TM1; first compound 0.3162 µM,0.417
same,relative viability,NCI-H1993; first compound 0.01 µM,0.501
same,relative viability,NCI-H1993; first compound 0.03162 µM,0.475
same,relative viability,NCI-H1993; first compound 0.3162 µM,0.441
same,relative viability,NCI-H650; first compound 0.01 µM,0.432
same,relative viability,NCI-H650; first compound 0.03162 µM,0.461
same,relative viability,NCI-H650; first compound 0.3162 µM,0.466
same,relative viability,UMC-11; first compound 0.01 µM,0.341
same,relative viability,UMC-11; first compound 0.03162 µM,0.305
same,relative viability,UMC-11; first compound 0.3162 µM,0.324
same,relative viability,NCI-H2085; first compound 0.01 µM,0.727
same,relative viability,NCI-H2085; first compound 0.03162 µM,0.705
same,relative viability,NCI-H2085; first compound 0.3162 µM,0.779
same,relative viability,HCC-827; first compound 0.01 µM,0.436
same,relative viability,HCC-827; first compound 0.03162 µM,0.42
same,relative viability,HCC-827; first compound 0.3162 µM,0.404
same,relative viability,HCC-44; first compound 0.01 µM,0.231
same,relative viability,HCC-44; first compound 0.03162 µM,0.4
same,relative viability,HCC-44; first compound 0.3162 µM,0.245
same,relative viability,LCLC-103H; first compound 0.01 µM,0.339
same,relative viability,LCLC-103H; first compound 0.03162 µM,0.352
same,relative viability,LCLC-103H; first compound 0.3162 µM,0.333
same,relative viability,SK-MES-1; first compound 0.03162 µM,0.743
same,relative viability,SK-MES-1; first compound 0.3162 µM,0.743
same,relative viability,ChaGo-K-1; first compound 0.01 µM,0.497
same,relative viability,ChaGo-K-1; first compound 0.03162 µM,0.458
same,relative viability,ChaGo-K-1; first compound 0.3162 µM,0.529
same,relative viability,NCI-H1793; first compound 0.01 µM,0.366
same,relative viability,NCI-H1793; first compound 0.03162 µM,0.439
same,relative viability,NCI-H1793; first compound 0.3162 µM,0.45
CC(C)Oc1cc(Nc2nc(N[C@@H](C)c3ccc(F)cn3)ncc2Cl)n[nH]1 [AZ23] + CCNC(=O)c1noc(-c2cc(C(C)C)c(O)cc2O)c1-c1ccc(CN2CCOCC2)cc1 [Luminespib] (partner 0.01 µM),relative viability,EPLC-272H; first compound 0.01 µM,0.15
same,relative viability,EPLC-272H; first compound 0.03162 µM,0.203
same,relative viability,EPLC-272H; first compound 0.3162 µM,0.551
same,relative viability,NCI-H1563; first compound 0.01 µM,0.544
same,relative viability,NCI-H1563; first compound 0.03162 µM,0.571
same,relative viability,NCI-H1563; first compound 0.3162 µM,0.596
same,relative viability,EMC-BAC-2; first compound 0.01 µM,1.11
same,relative viability,EMC-BAC-2; first compound 0.03162 µM,1.3
same,relative viability,EMC-BAC-2; first compound 0.3162 µM,1.23
same,relative viability,NCI-H322M; first compound 0.03162 µM,0.879
same,relative viability,NCI-H322M; first compound 0.3162 µM,1.08
same,relative viability,NCI-H2405; first compound 0.01 µM,0.717
same,relative viability,NCI-H2405; first compound 0.03162 µM,0.679
same,relative viability,NCI-H2405; first compound 0.3162 µM,0.661
same,relative viability,H3255; first compound 0.01 µM,0.574
same,relative viability,H3255; first compound 0.03162 µM,0.888
same,relative viability,H3255; first compound 0.3162 µM,0.854
same,relative viability,NCI-H23; first compound 0.03162 µM,0.229
same,relative viability,NCI-H23; first compound 0.3162 µM,0.204
same,relative viability,NCI-H2087; first compound 0.01 µM,0.151
same,relative viability,NCI-H2087; first compound 0.03162 µM,0.171
same,relative viability,NCI-H2087; first compound 0.3162 µM,0.169
same,relative viability,NCI-H1395; first compound 0.03162 µM,0.658
same,relative viability,NCI-H1395; first compound 0.3162 µM,0.771
same,relative viability,NCI-H520; first compound 0.01 µM,0.236
same,relative viability,NCI-H520; first compound 0.03162 µM,0.22
same,relative viability,NCI-H520; first compound 0.3162 µM,0.212
same,relative viability,NCI-H1355; first compound 0.01 µM,0.671
same,relative viability,NCI-H1355; first compound 0.03162 µM,0.768
same,relative viability,NCI-H1355; first compound 0.3162 µM,0.715
same,relative viability,NCI-H1944; first compound 0.01 µM,0.557
same,relative viability,NCI-H1944; first compound 0.03162 µM,0.75
same,relative viability,NCI-H1944; first compound 0.3162 µM,0.726
same,relative viability,NCI-H1651; first compound 0.03162 µM,0.753
same,relative viability,NCI-H1651; first compound 0.3162 µM,0.672
same,relative viability,LCLC-97TM1; first compound 0.01 µM,0.846
same,relative viability,LCLC-97TM1; first compound 0.03162 µM,0.783
same,relative viability,LCLC-97TM1; first compound 0.3162 µM,0.796
same,relative viability,NCI-H1993; first compound 0.01 µM,0.785
same,relative viability,NCI-H1993; first compound 0.03162 µM,0.881
same,relative viability,NCI-H1993; first compound 0.3162 µM,0.854
same,relative viability,NCI-H650; first compound 0.01 µM,0.665
same,relative viability,NCI-H650; first compound 0.03162 µM,0.854
same,relative viability,NCI-H650; first compound 0.3162 µM,0.765
same,relative viability,UMC-11; first compound 0.01 µM,1.15
same,relative viability,UMC-11; first compound 0.03162 µM,1.05
same,relative viability,UMC-11; first compound 0.3162 µM,0.988
same,relative viability,NCI-H2085; first compound 0.01 µM,0.321
same,relative viability,NCI-H2085; first compound 0.03162 µM,0.422
same,relative viability,NCI-H2085; first compound 0.3162 µM,0.463
same,relative viability,HCC-827; first compound 0.01 µM,0.372
same,relative viability,HCC-827; first compound 0.03162 µM,0.74
same,relative viability,HCC-827; first compound 0.3162 µM,0.649
same,relative viability,HCC-44; first compound 0.01 µM,0.863
same,relative viability,HCC-44; first compound 0.03162 µM,1.22
same,relative viability,HCC-44; first compound 0.3162 µM,1.22
same,relative viability,LCLC-103H; first compound 0.01 µM,1.04
same,relative viability,LCLC-103H; first compound 0.03162 µM,0.923
same,relative viability,LCLC-103H; first compound 0.3162 µM,1.03
same,relative viability,SK-MES-1; first compound 0.03162 µM,0.834
same,relative viability,SK-MES-1; first compound 0.3162 µM,0.952
same,relative viability,ChaGo-K-1; first compound 0.01 µM,0.637
same,relative viability,ChaGo-K-1; first compound 0.03162 µM,0.687
same,relative viability,ChaGo-K-1; first compound 0.3162 µM,0.7
same,relative viability,NCI-H1793; first compound 0.01 µM,0.158
same,relative viability,NCI-H1793; first compound 0.03162 µM,0.194
same,relative viability,NCI-H1793; first compound 0.3162 µM,0.143
